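Compound exposure: 48 hours, 5 concentrations, 96-well plates. Definition used: TGI = concentration required for complete inhibition of growth.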 Where only a bound is given, the exact number is not on record here.

The first assay concerns LOX IMVI melanoma. The experiment in a line: inhibition of tumour cell growth, NCI panel, 48 h.
As for `O=CN1CCN(C(=O)c2ccco2)C1=S`, the TGI was determined as 14.8 µM.

`CC(=O)C1(O)CCC2(O)C3(O)CC=C4CC(O)CCC4(C)C3CC(OC(=O)c3ccc(O)cc3)C12C` (stereo unspecified) yielded a TGI of more than 100 µM.

In turn, `Cn1c2c(c3ccccc31)CCN1C(=O)C34CCCC3CC21S4` (stereo unspecified) returned a TGI of more than 100 µM.

With `Clc1ccc(OCc2nnc(COc3ccc(OCc4nnc(COc5ccc(Cl)cc5Cl)o4)c(Cl)c3)o2)c(Cl)c1`, the TGI is 33.4 µM.

The compound `O=C1/C(=C/c2ccncc2)C(n2cccc2)c2c(Br)sc(Br)c21` (stereo unspecified) registered a TGI of 4.54 µM.

In the case of `COCC#C[C@@]1(O)CCCCC1CC(OC)OC` (stereo partly specified), the TGI is more than 100 µM.

`C=C1CC(COc2ccc3c(C)c(C)c(=O)oc3c2C)(c2ccccc2)OC1=O` (stereo unspecified) showed a TGI of 2.85 µM.

In the case of `CC(=O)OCC(=O)O[C@@H]1[C@H]2[C@@H](OC(=O)c3ccccc3)[C@@H](C)C[C@]2(O)[C@H](OC(C)=O)[C@@]2(C)C[C@]1(OC(C)=O)C[C@H]1C(=O)C(C)(C)[C@@H](OC(C)=O)[C@@H]12`, the TGI is more than 25 µM.

Take `O=C(Sc1c(-c2ccccc2)c(=O)n(-c2ccccc2)c(=S)n1-c1ccccc1)c1ccco1`: the TGI was more than 100 µM.

`Cn1nc2c(c1N)Cc1c(nn(C)c1N)-c1ccccc1-2` returned a TGI of more than 100 µM.

Regarding `O=c1ccn(-c2ccccn2)c(=O)n1-c1ccccn1`, the TGI is more than 100 µM.

Consider `O=C1NC(=S)NC(=O)C1C(c1ccc(Cl)cc1)C1C(=O)NC(=S)NC1=O`, for which the TGI was more than 100 µM.

Compound `COC(=O)C1=C(C(=O)OC)SC(=C2SC3=C(SC(=C4SCCS4)S3)S2)S1` had a TGI of more than 100 µM.

The compound `Cc1nnc2n1-c1ccccc1N(Cc1ccccc1)CC2` returned a TGI of more than 100 µM.

On to `CC(C)(C)c1cc(/C=C2/NC(=O)NC2=O)cc(C(C)(C)C)c1O`, for which the TGI turned out to be 32.9 µM.

Compound `COc1cccc(N2C(=O)CS(=O)(=O)C2c2cccc(Oc3ccccc3)c2)c1` (stereo unspecified) came in with a TGI of 51.1 µM.

On to `O=C(/C=C\Nc1ccccc1O)C(F)(F)F`, for which the TGI was more than 100 µM.

`CC1(C)OC[C@@H](C[C@H](O)COCc2ccccc2)O1` registered a TGI of more than 100 µM.

`NC(N)=NS(=O)(=O)c1ccc(NC(=O)c2cccc3c(NNc4ccc(S(N)(=O)=O)cc4)c4ccccc4nc23)cc1` returned a TGI of 36.5 µM.

For the compound `Nc1nncc2[nH]cnc12`, the TGI was more than 100 µM.

Consider `CN(C)CCNc1c([N+](=O)[O-])sc2ccc(Cl)cc12`, for which the TGI is more than 100 µM.

In turn, `CCOC(=O)Cn1nnc2cc(Nc3c(C)[n+]([O-])c4cc(F)c(OCC)cc4[n+]3[O-])ccc21` came in with a TGI of more than 100 µM.

Compound `O=[N+]([O-])/C(Cl)=C(/C(Cl)=C(Cl)Cl)N1CCCCC1` had a TGI of 25.5 µM.

`NCCN(CCN(C(=O)Nc1ccccc1)c1ccccc1)C(=O)Nc1ccccc1` showed a TGI of 47.6 µM.

For the compound `O=C1c2cccnc2S(=O)(=O)N1c1ccc([N+](=O)[O-])cc1`, the TGI is more than 100 µM.

With `CC1CCc2sc3nc4n(c(=O)c3c2C1)CC(C)S4` (stereo unspecified), the TGI was 39.8 µM.

Regarding `N#Cc1nc(CCCN2C(=O)c3ccccc3C2=O)oc1N`, the TGI is more than 100 µM.

The next assay deals with A549 NSCLC. The experiment in a line: inhibition of tumour cell growth, NCI panel, 48 h.
With `O=CN1CCN(C(=O)c2ccco2)C1=S`, the TGI came to 26.9 µM.

Consider `CC(=O)C1(O)CCC2(O)C3(O)CC=C4CC(O)CCC4(C)C3CC(OC(=O)c3ccc(O)cc3)C12C` (stereo unspecified), for which the TGI is more than 100 µM.

Consider `Cn1c2c(c3ccccc31)CCN1C(=O)C34CCCC3CC21S4` (stereo unspecified), for which the TGI was more than 100 µM.

For `Clc1ccc(OCc2nnc(COc3ccc(OCc4nnc(COc5ccc(Cl)cc5Cl)o4)c(Cl)c3)o2)c(Cl)c1`, the TGI is more than 100 µM.

Take `O=C1/C(=C/c2ccncc2)C(n2cccc2)c2c(Br)sc(Br)c21` (stereo unspecified): the TGI came out at 34.5 µM.

With `COCC#C[C@@]1(O)CCCCC1CC(OC)OC` (stereo partly specified), the TGI was more than 100 µM.

In turn, `C=C1CC(COc2ccc3c(C)c(C)c(=O)oc3c2C)(c2ccccc2)OC1=O` (stereo unspecified) showed a TGI of 26.7 µM.

Compound `CC(=O)OCC(=O)O[C@@H]1[C@H]2[C@@H](OC(=O)c3ccccc3)[C@@H](C)C[C@]2(O)[C@H](OC(C)=O)[C@@]2(C)C[C@]1(OC(C)=O)C[C@H]1C(=O)C(C)(C)[C@@H](OC(C)=O)[C@@H]12` yielded a TGI of more than 25 µM.

`O=C(Sc1c(-c2ccccc2)c(=O)n(-c2ccccc2)c(=S)n1-c1ccccc1)c1ccco1` returned a TGI of more than 100 µM.

Regarding `Cn1nc2c(c1N)Cc1c(nn(C)c1N)-c1ccccc1-2`, the TGI is more than 100 µM.

`O=c1ccn(-c2ccccn2)c(=O)n1-c1ccccn1` showed a TGI of more than 100 µM.

As for `O=C1NC(=S)NC(=O)C1C(c1ccc(Cl)cc1)C1C(=O)NC(=S)NC1=O`, the TGI is more than 100 µM.

In turn, `COC(=O)C1=C(C(=O)OC)SC(=C2SC3=C(SC(=C4SCCS4)S3)S2)S1` yielded a TGI of more than 100 µM.

`Cc1nnc2n1-c1ccccc1N(Cc1ccccc1)CC2`: the TGI is more than 100 µM.

Consider `COc1cccc(N2C(=O)CS(=O)(=O)C2c2cccc(Oc3ccccc3)c2)c1` (stereo unspecified), for which the TGI was more than 100 µM.

`O=C(/C=C\Nc1ccccc1O)C(F)(F)F` returned a TGI of more than 100 µM.

As to `CC1(C)OC[C@@H](C[C@H](O)COCc2ccccc2)O1`, the TGI is more than 100 µM.

`NC(N)=NS(=O)(=O)c1ccc(NC(=O)c2cccc3c(NNc4ccc(S(N)(=O)=O)cc4)c4ccccc4nc23)cc1` had a TGI of more than 100 µM.

For the compound `Nc1nncc2[nH]cnc12`, the TGI was more than 100 µM.

`CN(C)CCNc1c([N+](=O)[O-])sc2ccc(Cl)cc12` yielded a TGI of more than 100 µM.

Take `O=[N+]([O-])/C(Cl)=C(/C(Cl)=C(Cl)Cl)N1CCCCC1`: the TGI was found to be 28.5 µM.

Take `COc1ccc2c(c1)-c1c(c3cc(OC)ccc3n1CCN(C)C)CC2`: the TGI came to 29.9 µM.

Turning to `NCCN(CCN(C(=O)Nc1ccccc1)c1ccccc1)C(=O)Nc1ccccc1`, the TGI is more than 100 µM.

For `O=C1c2cccnc2S(=O)(=O)N1c1ccc([N+](=O)[O-])cc1`, the TGI is more than 100 µM.

Take `CC1CCc2sc3nc4n(c(=O)c3c2C1)CC(C)S4` (stereo unspecified): the TGI came out at 70.5 µM.

`N#Cc1nc(CCCN2C(=O)c3ccccc3C2=O)oc1N`: the TGI is more than 100 µM.

The next assay has as its system HCT-15 colon. The experiment in a line: inhibition of tumour cell growth, NCI panel, 48 h.
Turning to `O=CN1CCN(C(=O)c2ccco2)C1=S`, the TGI was 25.7 µM.

For the compound `CC(=O)C1(O)CCC2(O)C3(O)CC=C4CC(O)CCC4(C)C3CC(OC(=O)c3ccc(O)cc3)C12C` (stereo unspecified), the TGI was more than 100 µM.

`Cn1c2c(c3ccccc31)CCN1C(=O)C34CCCC3CC21S4` (stereo unspecified) had a TGI of more than 100 µM.

Take `Clc1ccc(OCc2nnc(COc3ccc(OCc4nnc(COc5ccc(Cl)cc5Cl)o4)c(Cl)c3)o2)c(Cl)c1`: the TGI is more than 100 µM.

`O=C1/C(=C/c2ccncc2)C(n2cccc2)c2c(Br)sc(Br)c21` (stereo unspecified) gave a TGI of 11.1 µM.

`COCC#C[C@@]1(O)CCCCC1CC(OC)OC` (stereo partly specified) displayed a TGI of more than 100 µM.

Regarding `C=C1CC(COc2ccc3c(C)c(C)c(=O)oc3c2C)(c2ccccc2)OC1=O` (stereo unspecified), the TGI was 3.84 µM.

Take `CC(=O)OCC(=O)O[C@@H]1[C@H]2[C@@H](OC(=O)c3ccccc3)[C@@H](C)C[C@]2(O)[C@H](OC(C)=O)[C@@]2(C)C[C@]1(OC(C)=O)C[C@H]1C(=O)C(C)(C)[C@@H](OC(C)=O)[C@@H]12`: the TGI is more than 25 µM.

As to `O=C(Sc1c(-c2ccccc2)c(=O)n(-c2ccccc2)c(=S)n1-c1ccccc1)c1ccco1`, the TGI was more than 100 µM.

`Cn1nc2c(c1N)Cc1c(nn(C)c1N)-c1ccccc1-2` registered a TGI of more than 100 µM.

Consider `O=c1ccn(-c2ccccn2)c(=O)n1-c1ccccn1`, for which the TGI is more than 100 µM.

`O=C1NC(=S)NC(=O)C1C(c1ccc(Cl)cc1)C1C(=O)NC(=S)NC1=O` displayed a TGI of more than 100 µM.

As for `Cc1nnc2n1-c1ccccc1N(Cc1ccccc1)CC2`, the TGI is more than 100 µM.

Source of the values: PubChem BioAssay (NCI).
